Measured values: patent publication US20220062247A1, “USE OF A PAR-1 ANTAGONIST FOR THE TREATMENT OF A CHRONIC INFLAMMATORY INTESTINAL DISEASE” (CVASTHERA, priority 2018, published 2022)

How the values were obtained:
[1] = test system: inflammatory bowel disease induced by 2,4,6-trinitrobenzenesulfonic acid (TNBS); assay: Colitis induced by intra-colonical TNBS in rats (body weight, DAI score, colon wall thickness, macroscopic damage score, MPO); format: in vivo, male laboratory rat of the Wistar strain
Excerpt: The purpose of this study is to assess the effectiveness of two PAR-1 antagonists, vorapaxar and 3-2-(chloro-phenyl)-1-[4-(4-fluoro-benzyl)-piperazine-1-yl]propenone (hereinafter, referred to as CSI) in a model of an inflammatory bowel disease induced by 2,4,6-trinitrobenzenesulfonic acid (TNBS) in a male laboratory rat of the Wistar strain. This model is described in the publication of Whittle et al., 2003, in Methods Mol. Biol., 225, 209-222.
In this induced colitis model, the inflammatory reaction is measured every day and is well established 7 days after intra-colonical administration of TNBS.
(§1) Different parameters are measured: the weight of the rats, the presence of blood in the faeces and the diarrhoeas assessed by the disease activity index (DAI score), the intensity of pain (assessed by Von Frey filaments technique measured on days 3 and 7).
The rats are sacrificed 7 days after the beginning of the treatment and the macroscopic damages, the oedema and a marker of the inflammation, myeloperoxidase (MPO), are quantified.
The experiments with the PAR-1 antagonists are carried out in two studies, relating to vorapaxar and CSI, respectively.
The colitis is induced by intra-colonical administration of 2,4,6-trinitrobenzenesulfonic acid (TNBS) (30 mg of TNBS in 0.25 ml of a 50% ethanol/NaCl solution) via a catheter (polyethylene (PE)-60) inserted 8 cm proximally from the anus.
Four groups of 10 rats receive an intra-colonical administration of TNBS, as well as a per os treatment of vorapaxar at the dose of 2.5 mg/kg/day or of CSI at doses of 10 and 40 mg/kg/day or of prednisolone (a compound proposed by the prior art for the treatment of IBDs) at the dose of 3 mg/kg/day. The per os treatments start 1 h before the intra-colonical administration of TNBS.
As a negative comparative example, 1 group of 10 rats receives an intra-colonical administration of TNBS and of the vorapaxar vehicle (phosphate buffered saline—PBS) or of the CSI vehicle (carboxymethyl cellulose—CMC at 1%) per os daily.
Moreover, 1 group of 6 control rats receives an intra-colonical administration of NaCl instead of TNBS.
The DAI score is determined as follows. The development of the disease is estimated on a daily basis. The consistence of the excrements, as well as the presence of blood in the faeces assessed with the Hemoccult® paper test, are respectively quantified by the seriousness scales of Table 3 hereinbelow. The obtained values are added together to obtain the DAI score.
The macroscopic damage score is assessed according to the protocol described in the publication of Comera et al., 1999, Dig. Dis. Sci. 44: 1448-1457, as follows. On day 7 after induction of the colitis, the rats are sacrificed by carbon dioxide CO2 inhalation, the colon (from the anus to the Caecum) is removed and the macroscopic damages are assessed according to the parameters observed and presented in Table 4 hereinbelow, to determine the macroscopic damage score.

[2] = test system: human colon epithelial cells Caco2; assay: Epithelial cells repair: cicatrisation of a lesion on a Caco2 monolayer; format: cell-based
Method: A lesion is practiced using a sterilised forceps on human colon epithelial cells Caco2 in monolayer and at a confluence. Afterwards, the cells are rinsed twice with sterilised […] and then placed in an adequate culture medium. In this medium, vorapaxar at different concentrations (10 nM, 100 nM, 1 μM, 10 μM) or the vehicle (control) are added in independent culture dishes. The cicatrisation of the lesion is supervised and analysed using a confocal microscope for 28 h. The percentage of the lesioned surface of the lesion is determined for each tested condition, 4 h, 22 h and 28 h after the lesion. The obtained results are shown in FIG. 12, respectively in a/, b/ and c/.

[3] = test system: nociceptive response induced by TNBS; assay: Nociceptive response (allodynia) by Von Frey filaments technique in TNBS colitis rats; format: in vivo, rat; settings: 7 days after colitis induction
Method: as §1
The intensity of the pain is measured by the Von Frey filaments technique on days […], according to the protocol described in the publication of Auge et al., 2013, Eur. J. Pharmacol. 707: 32-40.
The effect on the nociceptive response, measured by Von Frey filaments technique according to the mass of Von Frey filaments, is shown in FIG. 10 for prednisolone and in FIG. 11 for vorapaxar.

[4] = test system: inflammatory bowel disease, Dextran Sulphate sodium (DSS); assay: Dextran Sulphate sodium (DSS) model of inflammatory bowel disease in mice (body weight, DAI, macroscopic damage score, MPO); format: in vivo, mice (C57B16)
Excerpt: The purpose of this study is to assess the effectiveness of a PAR-1 antagonist according to the invention, 3-2-(chloro-phenyl)-1-[4-(4-fluoro-benzyl)-piperazine-1-yl]propenone (CSI) in a model of an inflammatory bowel disease, Dextran Sulphate sodium (DSS) in mice. This DSS model is described in the publication of Choi et al., 2010, in J. Biomed. Biotechnol., 2010:943516; doi: 10.1155/2010/943516.
This model features a cytokine profile Th1 in its acute phase, periods of remission and relapses, it is consequently very similar to ulcerous colitis. The DSS distributed in the drinking water can cause an inflammation of the digestive tract and produce colorectal tumours in the rodent. The DSS is widely used as an animal model of human inflammatory diseases of the digestive tract.
The present study is conducted in 7-week-old mice (C57B16). The 5-aminosalicylic acid serves as a positive comparative example.
The first day of the study starts with the daily administration of a beverage containing DSS at 5% p/p in water to the mice, until the day of sacrifice. The development of the disease is estimated on a daily basis, with accurate weighting of the mice, the assessment of the consistence of the excrements as well as the presence of blood in the faeces with the Hemoccult® paper test. The DAI score is calculated as indicated in Example 1.
Each day, groups of mice receive per os CSI at different concentrations, or 5-aminosalicylic acid (5-ASA), or the vehicle alone, that is to say carboxymethyl cellulose (CMC) at 1%.
The mice are sacrificed 7 days after the beginning of the treatment. The colon is excised and the macroscopic damages are assessed. The colon is then cut into 4 pieces, the distal portion is placed in an Eppendorf tube and stored at −80° C. until the measurement of the activity of myeloperoxidase and the quantification of proteins. The proximal portion is kept in formaline at 10% for future histological analyses. The two other central portions are placed in Eppendorf tubes and stored at −80° C. for future analyses.
On day 7, after having sacrificed the animals, the colon is removed. The macroscopic damage score, assessed as described in Example 1, and the myeloperoxidase (MPO) activity are determined.

[5] = test system: induced colitis; settings: induced colitis model in mice, by reducing the inflammation phenomenon; cited from earlier work
[6] = DSS 5%, Group 2, 10 mg/kg/24 h per os, Moy
[7] = DSS 5%, Group 3, 40 mg/kg/24 h per os, Moy

CCOC(=O)N[C@@H]1CC[C@@H]2[C@@H](C1)C[C@H]1C(=O)O[C@H](C)[C@H]1[C@H]2/C=C/c1ccc(-c2cccc(F)c2)cn1 [vorapaxar, ethyl N-[(1R,3aR,4aR,6R,8aR,9S,9aS)-9-[(E)-2-[5-(3-fluorophenyl)pyridin-2-yl]ethenyl]-1-methyl-3-oxo-3a,4,4a,5,6,7,8,8a,9,9a-decahydro-1H-benzo[f][2]benzofuran-6-yl]carbamate]
disease activity index (DAI) ([1]; 2.5 mg/kg daily, 7th day): significantly reduces | apparition of oedema (thickness of the wall of the colon) ([1]; 2.5 mg/kg daily, 7th day, vs vehicle group): significantly reduces | disease activity index (DAI) ([1]; 2.5 mg/kg, as of the 1st day, vs vehicle group): significantly reduced | weight loss (body weight) ([1]; 2.5 mg/kg/day per os, as of the 2nd day): significantly reduces | macroscopic damage score ([1]; 2.5 mg/kg/day, day 7, vs vehicle group): significantly reduces | cicatrisation of the lesion (percentage of the lesioned surface) ([2]; Caco2, 4 h after the lesion, 100 nM, 1 μM and 10 μM): highly enhanced | cicatrisation of the lesion (percentage of the lesioned surface) ([2]; Caco2, 22 h after the lesion, 10 nM to 10 μM): amplifies the cicatrisation surface in a concentration-dependent way | cicatrisation of the lesion (percentage of the lesioned surface) ([2]; Caco2, 28 h after the lesion, from 100 nm to 10 μM): complete cicatrisation | allodynia-type response (Von Frey) ([3]; 2.5 mg/kg/day): significantly inhibits

O=C(/C=C/c1ccccc1Cl)N1CCN(Cc2ccc(F)cc2)CC1 [CSI, 3-2-(chloro-phenyl)-1-[4-(4-fluoro-benzyl)-piperazine-1-yl]propenone]
disease activity index (DAI) ([1]; 10 mg/kg daily, 7th day): significantly reduces | MPO activity ([1]; 40 mg/kg/day, day 7): significantly reduced | macroscopic damage score ([1]; 10 and 40 mg/kg/day (tested doses), day 7, vs vehicle group): significantly reduces | weight loss (body weight) ([1]; 10 or 40 mg/kg/day per os): alleviate | Disease activity index, D1 [4, 6]: 1.40 | Disease activity index, D2 [4, 6]: 1.35 | Disease activity index, D3 [4, 6]: 2.00 | Disease activity index, D4 [4, 6]: 3.75 | Disease activity index, D5 [4, 6]: 4.00 | Disease activity index, D6 [4, 6]: 4.00 | Disease activity index, D7 [4, 6]: 2.90 | Variation of the body weight of the mice in comparison with day D0, D1-D0 [4, 6]: 0.67 g | Variation of the body weight of the mice in comparison with day D0, D2-D0 [4, 6]: 0.44 g | Variation of the body weight of the mice in comparison with day D0, D3-D0 [4, 6]: 0.45 g | Variation of the body weight of the mice in comparison with day D0, D4-D0 [4, 6]: -0.42 g | Variation of the body weight of the mice in comparison with day D0, D5-D0 [4, 6]: -2.15 g | Variation of the body weight of the mice in comparison with day D0, D6-D0 [4, 6]: -3.79 g | Variation of the body weight of the mice in comparison with day D0, D7-D0 [4, 6]: -5.19 g | macroscopic damage score ([4]; DSS 5%, Group 2, 10 mg/kg/24 h per os, day 7, Moy): 5.2 | MPO activity ([4]; DSS 5%, Group 2, 10 mg/kg/24 h per os, day 7, colon, Moy): 12.99 mU/mg proteins | Disease activity index, D1 [4, 7]: 2.00 | Disease activity index, D2 [4, 7]: 1.10 | Disease activity index, D3 [4, 7]: 1.50 | Disease activity index, D4 [4, 7]: 2.80 | Disease activity index, D5 [4, 7]: 4.00 | Disease activity index, D6 [4, 7]: 4.00 | Disease activity index, D7 [4, 7]: 3.00 | Variation of the body weight of the mice in comparison with day D0, D1-D0 [4, 7]: -0.08 g | Variation of the body weight of the mice in comparison with day D0, D2-D0 [4, 7]: -0.07 g | Variation of the body weight of the mice in comparison with day D0, D3-D0 [4, 7]: -0.19 g | Variation of the body weight of the mice in comparison with day D0, D4-D0 [4, 7]: -0.68 g | Variation of the body weight of the mice in comparison with day D0, D5-D0 [4, 7]: -1.07 g | Variation of the body weight of the mice in comparison with day D0, D6-D0 [4, 7]: -2.69 g | Variation of the body weight of the mice in comparison with day D0, D7-D0 [4, 7]: -4.00 g | macroscopic damage score ([4]; DSS 5%, Group 3, 40 mg/kg/24 h per os, day 7, Moy): 4.0 | MPO activity ([4]; DSS 5%, Group 3, 40 mg/kg/24 h per os, day 7, colon, Moy): 6.9 mU/mg proteins | disease activity index ([4]; DSS mice, 10 mg/kg daily (Group 2), 7th day): significantly reduces | MPO activity ([4]; DSS mice, 40 mg/kg (Group 3)): strongly reduced | disease activity index ([4]; DSS mice, 40 mg/kg (Group 3), 4th and 7th day, vs vehicle group (Group 4)): significantly reduced | weight loss ([4]; DSS mice, 40 mg/kg (Group 3), 6th day): significantly reduces | daily signs of colitis ([4]; DSS mice, 10 and 40 mg/kg, seems more effective than 5-ASA): reduces, significantly and in a dose-dependent way | macroscopic damage score ([4]; DSS mice, both tested doses 10 and 40 mg/kg (Groups 2 and 3), vs vehicle group (Group 4)): significantly reduces

C[C@]12C=CC(=O)C=C1CC[C@@H]1[C@@H]2[C@@H](O)C[C@@]2(C)[C@H]1CC[C@]2(O)C(=O)CO [prednisolone]
apparition of oedema (thickness of the wall of the colon) ([1]; 3 mg/kg daily oral, 7 days): does not prevent | disease activity index (DAI) ([1]; 3 mg/kg daily oral, all observed points): does not prevent the increase | macroscopic damage score ([1]; 3 mg/kg, day 7, vs vehicle group): significantly reduces | weight loss (body weight) ([1]; 3 mg/kg/day per os): alleviate | MPO activity ([1]; 3 mg/kg/day, day 7, vs vehicle group): significantly reduce | allodynia-type response (Von Frey) ([3]; 3 mg/kg/day): only a partial inhibition

COc1ccc(C[C@H](NC(=O)Nc2ccc3c(CN4CCCC4)cn(Cc4c(Cl)cccc4Cl)c3c2)C(=O)N[C@@H](CCCNC(=N)N)C(=O)NCc2ccccc2)cc1 [L-arininamide-4-methoxy-N-[[[1-[92,6-dichlorophenyl-methyl]-3-(1-pyrrolidinylmethyl)-1H-indol-6-yl]amino]carbonyl]-1-phenylalanyl-N-(phenylmethyl)-(5)]
survival rate of animals [5]: improving the survival rate
